Experiment in all cases: growth of human tumour cells (NCI), 48 h
The test system of assay [1] is SR leukemia.
The test system of assay [2] is OVCAR-3 ovarian.
Assay [3] deals with SNB-75 CNS.
In assay [4] the test system is HCT-15 colon.
Assay [5] concerns T-47D breast.
Assay [6] concerns 786-0 renal.
Assay [7] concerns BT-549 breast.
Assay [8] concerns CCRF-CEM leukemia.
In assay [9] the test system is A549 NSCLC.
Assay [10] concerns SK-MEL-5 melanoma.

In PubChem BioAssay (NCI) one finds GI50 and TGI data, which are given here for 10 compounds.

The structures appear in SMILES notation.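 48-hour exposure; five concentrations; linearly interpolated endpoints. Abbreviation: GI50, concentration required for 50% inhibition of growth. TGI: concentration producing complete growth inhibition.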 Where only a bound is given, the exact number is not on record here.

Consider `CCCCCCCCCCCCCCCCCCOc1ccccc1CC(=O)OCC[N+]1(C)CCCC1`, for which the GI50 in [1] was 2.47 µM; in assay [2], 1.63 µM; in assay [3] it was 1.26 µM; in assay [4], 4.1 µM; in assay [5], 3 µM; in assay [6] it was 1.71 µM. Further, the GI50 in assay [7] is 2.59 µM. Besides, the TGI in [1] is 6.92 µM; in assay [2], 3.13 µM; in assay [3] it was 3.07 µM; in assay [4] it was 21 µM; in assay [5], 17 µM; in assay [6] it was 3.25 µM. Also, the TGI in assay [7] came out at 6.95 µM.

Consider `CCSc1nc(SCC)c2cn[nH]c2n1`, for which the GI50 in assay [2] was 38.8 µM; in [8], 41.5 µM; in assay [3], more than 100 µM; in [4], 66.3 µM; in assay [5], 34.2 µM; in assay [6], more than 100 µM. The GI50 in assay [9] was 46.5 µM; in [7], 37.5 µM; in assay [10] it was 18 µM. Further, the TGI in assay [2], in [8], in assay [3], in assay [4], in assay [5] and in assay [6] was more than 100 µM in each case. The results for the TGI in assay [9], in [7] and in assay [10] were more than 100 µM, more than 100 µM and 41.8 µM, respectively.

Turning to `CC(C)C[C@H](NC(=O)/C=C/Cn1ccc2ccccc2c1=O)B(O)O`, the GI50 was 0.887 µM in assay [1]; 2.55 µM in [2]; 3.2 µM in [3]; 6.55 µM in [4]; 2.68 µM in assay [5]; 5.03 µM in [6]. The GI50 was 5.35 µM in [9], 2.67 µM in assay [7] and 2.36 µM in assay [10]. In addition, the TGI in [1] was 21.8 µM; in [2], 7.88 µM; in assay [3], 16.3 µM; in [4] it was 48.2 µM; in assay [5] it was 15.3 µM; in assay [6], more than 100 µM. The TGI in assay [9] is more than 100 µM; in assay [7] it was 13.7 µM; in [10], 6.16 µM.

Take `Cn1c2ccccc2c(=O)c2ccc(Cl)cc21`: the TGI in assay [1], in assay [2], in assay [8], in assay [3], in assay [4] and in assay [5] was more than 10 µM in each case. Besides, the TGI in assay [6], in assay [9] and in assay [10] was more than 10 µM each time.

As to `COc1ccc(CCN2COc3c([C@@H](C)CCC=C(C)C)ccc(C)c3C2)cc1OC`, the GI50 is 3.55 µM in assay [2]; 3.49 µM in assay [8]; 12.5 µM in assay [3]; 2.84 µM in assay [4]; 1.78 µM in assay [5]; 1.98 µM in assay [6]. Besides, the values for the GI50 in assay [9] and in assay [10] were 10.3 µM and 1.64 µM, respectively. For the same compound, the TGI was 14.1 µM in [2]; 21.1 µM in [8]; 35.4 µM in [3]; 10.4 µM in assay [4]; 3.8 µM in assay [5]; 4.16 µM in assay [6]. Moreover, the TGI in assay [9] was 31.5 µM; in assay [10], 3.04 µM.

In the case of `Nc1ccc(-c2nc3ccc(Cc4ccc5nc(-c6ccc(N)cc6)[nH]c5c4)cc3[nH]2)cc1`, the GI50 was 1.48 µM in [1]; 1.76 µM in [2]; 2.12 µM in assay [8]; 12.3 µM in assay [3]; 14.8 µM in assay [4]; 4.52 µM in assay [6]. Also, the GI50 is 20.8 µM in [9], 9.86 µM in assay [7] and 5.22 µM in [10]. Moreover, the TGI in assay [1] was more than 100 µM; in assay [2], 3.31 µM; in assay [8], 6.7 µM; in assay [3] it was 28.9 µM; in assay [4], 47.9 µM; in assay [6], 31.6 µM. Moreover, the TGI in [9] is 57.7 µM; in assay [7] it was 67.2 µM; in assay [10], 34.1 µM.

Regarding `O=C1CC2c3ccccc3CCC2c2ccccc21` (stereo not given), the TGI in assay [1] is more than 100 µM; in assay [2], 41.8 µM; in assay [3], more than 100 µM; in assay [4], 50.1 µM; in assay [5], more than 100 µM; in assay [6], 79.8 µM. Further, the TGI in assay [9] is more than 100 µM; in assay [10] it was 31 µM.

For `COc1cc2[nH]c(C(=O)c3cc(OC)c(OC)c(OC)c3)c(N)c2cc1C#CC1CC1`, the GI50 was 0.976 µM in assay [1]; 1.53 µM in [2]; 3.38 µM in assay [8]; 1.02 µM in assay [3]; 2.3 µM in assay [4]; 3.02 µM in assay [5]. Besides, the GI50 in assay [6] is 3.25 µM; in [9], 6.65 µM; in assay [10], 1.33 µM. The TGI is more than 100 µM in assay [1]; 5.74 µM in assay [2]; more than 100 µM in assay [8]; 3.99 µM in assay [3]; more than 100 µM in assay [4]; more than 100 µM in assay [5]. Besides, the TGI was more than 100 µM in [6], more than 100 µM in [9] and 22.4 µM in assay [10].

For `C[C@H](O)C(=O)N1CCC(CCn2c(Sc3cc4c(cc3Br)OCO4)nc3c(N)ncnc32)CC1`, the GI50 in assay [2] was 3.28 µM; in assay [8] it was 0.49 µM; in [3], 9.04 µM; in assay [4], 1.3 µM; in assay [5], 2.15 µM; in assay [6] it was 3.77 µM. Besides, the GI50 in assay [9] was 0.869 µM; in assay [7] it was 1.93 µM; in [10], 2.95 µM. Moreover, the TGI in assay [2], in assay [8], in assay [3], in [4], in assay [5] and in assay [6] was more than 100 µM each time. In addition, the TGI in assay [9], in assay [7] and in assay [10] was more than 100 µM throughout.

`CC(CO)(CO)NCCCCn1ccc2c1C(=O)c1c(c(O)c3ccccc3c1O)C2=O`: the GI50 in assay [2] was 5.78 µM; in assay [5], 21.1 µM; in assay [6] it was 10.9 µM; in assay [7], 19.9 µM. Also, the TGI is 29.1 µM in [2], 65.8 µM in assay [5], 26.9 µM in assay [6] and 51.2 µM in assay [7].
